According to patent US7335644B2, “Anti-hypertensive molecules and process for preparation thereof” (Council of Scientific and Industrial Research, priority 2003, dated 2008):

System: arterial blood pressure of hypertensive Wistar rats
Conditions: 1 mg/kg

Compound: C[C@H](CS)C(=O)N1CCC[C@H]1C(=O)O [captopril]
- fall of blood pressure (reference inhibitor): 60 mm Hg
- time during which still quite effective in blocking angiotensin-converting enzyme (reference inhibitor): ≥ 180 min
- time for blood pressure to return to baseline (reference inhibitor (not shown)): 240 min
